This passage reports EC50 results from US10689367B2, “Triazole pyridyl compounds as agonists of the APJ receptor” (AMGEN INC., priority 2016, dated 2020).

The term EC50 denotes the concentration needed to bring the measured effect to its halfway point.

Sequence of human APJ receptor (P35414 whole entry): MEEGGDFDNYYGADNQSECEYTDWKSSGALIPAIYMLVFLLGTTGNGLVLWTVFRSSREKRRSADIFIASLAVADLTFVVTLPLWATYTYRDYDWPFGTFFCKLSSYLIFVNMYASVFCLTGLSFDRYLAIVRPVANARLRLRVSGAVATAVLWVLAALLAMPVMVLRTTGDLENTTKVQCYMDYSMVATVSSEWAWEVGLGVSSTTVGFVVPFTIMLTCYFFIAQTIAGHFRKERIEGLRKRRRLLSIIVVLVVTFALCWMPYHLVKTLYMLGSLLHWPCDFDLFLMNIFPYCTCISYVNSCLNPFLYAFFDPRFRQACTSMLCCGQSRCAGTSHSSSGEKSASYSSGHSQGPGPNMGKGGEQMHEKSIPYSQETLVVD

This experiment has as its target human APJ receptor (Homo sapiens (Human), UniProt P35414). In words: [35S]GTPγS binding assay on membranes from CHO cells stably expressing human APJ receptor. The experiment is classed as biochemical. Conditions: membranes of CHO cells stably expressing human APJ receptor, read-out: Activity hAPJ SPA EC50 IP. Summed up:
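[35S]GTPγS binding measured on membranes from CHO cells stably expressing FLAG-tagged human APJ, with GDP, MgCl2 and NaCl levels optimized beforehand. Incubation 90 min at RT, imager read-out; EC50 from non-linear regression, averaged over several independent experiments.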
With `COc1cccc(-c2nnc(NS(=O)(=O)[C@@H](C)[C@H](OC)c3ncc(Cl)cn3)n2[C@H](C)c2cncc(F)c2)n1` (single isomer, unassigned) [Example 349.0, (1R,2S)-1-(5-chloropyrimidin-2-yl)-N-(4-((R)-1-(5-fluoropyridin-3-yl)ethyl)-5-(6-methoxypyridin-2-yl)-4H-1,2,4-triazol-3-yl)-1-methoxypropane-2-sulfonamide or (1R,2S)-1-(5-chloropyrimidin-2-yl)-N-(4-((S)-1-(5-fluoropyridin-3-yl)ethyl)-5-(6-methoxypyridin-2-yl)-4H-1,2,4-triazol-3-yl)-1-methoxypropane-2-sulfonamide], the EC50 was found to be 0.43 nM.

For the molecule `COC[C@H](C)n1c(NS(=O)(=O)[C@@H](C)[C@H](C)c2ncc(Cl)cn2)nnc1-c1cccc(OC)n1` [Example 174.0, (2S,3R)-3-(5-chloro-2-pyrimidinyl)-N-(4-((2S)-1-methoxy-2-propanyl)-5-(6-methoxy-2-pyridinyl)-4H-1,2,4-triazol-3-yl)-2-butanesulfonamide], the EC50 came out at 3.3 nM.

Take `COc1cccc(-c2nnc(NS(=O)(=O)[C@@H](C)[C@H](OC)c3ncc(Cl)cn3)n2C2CC2)n1` [Example 69.0]: the EC50 amounted to 0.89 nM.

Regarding `COc1cccc(-c2nnc(NS(=O)(=O)[C@@H](C)[C@H](OC)c3ncc(Cl)cn3)n2[C@H]2CCCC[C@H]2C)n1` (stereo in doubt) [Example 75.0], the EC50 is 3 nM.

Take `COc1cccc(-c2nnc(NS(=O)(=O)[C@@H](C)[C@H](OC)c3ncc(Cl)cn3)n2C[C@@H]2CCC[C@H](C)O2)n1` (single isomer, unassigned) [Example 308.0]: the concentration for a half-maximal effect (EC50) was determined as 1.9 nM.

Turning to `COCCn1c(NS(=O)(=O)[C@@H](C)[C@@H](OC(C)C)c2ncc(Cl)cn2)nnc1-c1cncc(C)c1` [Example 12.0, (1S,2S)-1-(5-chloro-2-pyrimidinyl)-N-(4-(2-methoxyethyl)-5-(5-methyl-3-pyridinyl)-4H-1,2,4-triazol-3-yl)-1-(2-propanyloxy)-2-propanesulfonamiide], the concentration for a half-maximal effect (EC50) came out at 120 nM.

As to `COc1cccc(-c2nnc(NS(=O)(=O)[C@@H](C)[C@@H](OC(C)C)c3ncc(C)cn3)n2[C@H](C)[C@@H]2CCCCO2)n1` (single isomer, unassigned) [Example 323.0], the EC50 stood at 0.66 nM.

With `COc1cccc(-c2nnc(NS(=O)(=O)[C@@H](C)[C@H](OC)c3ncc(Cl)cn3)n2Cc2cnoc2)n1` [Example 186.0, (1R,2S)-1-(5-chloropyrimidin-2-yl)-N-(4-(isoxazol-4-ylmethyl)-5-(6-methoxypyridin-2-yl)-4H-1,2,4-triazol-3-yl)-1-methoxypropane-2-sulfonamide], the EC50 amounted to 98 nM.

Consider `COc1cccc(-c2nnc(NS(=O)(=O)[C@@H](C)[C@H](OC)c3ncc(Cl)cn3)n2[C@H]2C[C@H](OC)C2)n1` [Example 181.0, (1R,2S)-1-(5-chloro-2-pyrimidinyl)-1-methoxy-N-(4-(trans-3-methoxycyclobutyl)-5-(6-methoxy-2-pyridinyl)-4H-1,2,4-triazol-3-yl)-2-propanesulfonamide], for which the EC50 stood at 190 nM.

Take `COc1cccc(-c2nnc(NS(=O)(=O)[C@@H](C)[C@H](C)c3ncc(Cl)cn3)n2C[C@H]2CCCO2)n1` (racemic) [Example 282.0, (2S,3R)-3-(5-chloropyrimidin-2-yl)-N-(5-(6-methoxypyridin-2-yl)-4-(((R)-tetrahydrofuran-2-yl)methyl)-4H-1,2,4-triazol-3-yl)butane-2-sulfonamide or (2S,3R)-3-(5-chloropyrimidin-2-yl)-N-(5-(6-methoxypyridin-2-yl)-4-(((S)-tetrahydrofuran-2-yl)methyl)-4H-1,2,4-triazol-3-yl)butane-2-sulfonamide]: the 50% effective concentration (EC50) stood at 54 nM.

For `COc1cccc(-c2nnc(NS(=O)(=O)[C@@H](C)[C@@H](OC(C)C)c3ncc(C)cn3)n2[C@H](c2conc2C)C2CC2)n1` (mixture of isomers) [Example 226.0, (1S,2S)-N-(4-((R)-cyclopropyl(3-methyl-1,2-oxazol-4-yl)methyl)-5-(6-methoxy-2-pyridinyl)-4H-1,2,4-triazol-3-yl)-1-(5-methyl-2-pyrimidinyl)-1-(2-propanyloxy)-2-propanesulfonamide and (1S,2S)-N-(4-((S)-cyclopropyl(3-methyl-1,2-oxazol-4-yl)methyl)-5-(6-methoxy-2-pyridinyl)-4H-1,2,4-triazol-3-yl)-1-(5-methyl-2-pyrimidinyl)-1-(2-propanyloxy)-2-propanesulfonamide], the concentration giving a half-maximal response (EC50) was determined as 0.88 nM.

On to `COc1cccc(-c2nnc(NS(=O)(=O)[C@@H](C)[C@H](OC)c3ncc(Cl)cn3)n2[C@H](C)c2cscn2)n1` (single isomer, unassigned) [Example 344.0, (1R,2S)-1-(5-chloropyrimidin-2-yl)-1-methoxy-N-(5-(6-methoxypyridin-2-yl)-4-((S)-1-(thiazol-4-yl)ethyl)-4H-1,2,4-triazol-3-yl)propane-2-sulfonamide or (1R,2S)-1-(5-chloropyrimidin-2-yl)-1-methoxy-N-(5-(6-methoxypyridin-2-yl)-4-((R)-1-(thiazol-4-yl)ethyl)-4H-1,2,4-triazol-3-yl)propane-2-sulfonamide], for which the EC50 was 7.1 nM.

On to `COc1cccc(-c2nnc(NS(=O)(=O)[C@@H](C)[C@@H](OC(C)C)c3ncc(C)cn3)n2[C@@H](C)c2ncc(C)o2)n1` (single isomer, unassigned) [Example 241.0, (1S,2S)-N-(5-(6-methoxy-2-pyridinyl)-4-((1S)-1-(5-methyl-1,3-oxazol-2-yl)ethyl)-4H-1,2,4-triazol-3-yl)-1-(5-methyl-2-pyrimidinyl)-1-(2-propanyloxy)-2-propanesulfonamide or (1S,2S)-N-(5-(6-methoxy-2-pyridinyl)-4-((1R)-1-(5-methyl-1,3-oxazol-2-yl)ethyl)-4H-1,2,4-triazol-3-yl)-1-(5-methyl-2-pyrimidinyl)-1-(2-propanyloxy)-2-propanesulfonamide], for which the EC50 stood at 7.4 nM.

With `CC(C)O[C@@H](c1ncc(Cl)cn1)[C@H](C)S(=O)(=O)Nc1nnc(-c2ccccn2)n1C1CC1` [Example 127.0], the EC50 amounted to 48 nM.

Turning to `COc1cccc(-c2nnc(NS(=O)(=O)[C@@H](C)[C@H](OC)c3ncc(Cl)cn3)n2[C@H](C)c2cccnc2)n1` (single isomer, unassigned) [Example 350.0, (1R,2S)-1-(5-chloropyrimidin-2-yl)-1-methoxy-N-(5-(6-methoxypyridin-2-yl)-4-((R)-1-(pyridin-3-yl)ethyl)-4H-1,2,4-triazol-3-yl)propane-2-sulfonamide or (1R,2S)-1-(5-chloropyrimidin-2-yl)-1-methoxy-N-(5-(6-methoxypyridin-2-yl)-4-((S)-1-(pyridin-3-yl)ethyl)-4H-1,2,4-triazol-3-yl)propane-2-sulfonamide], the EC50 is 7.84 nM.

In the case of `COc1cccc(-c2nnc(NS(=O)(=O)[C@@H](C)[C@H](OC)c3ncc(Cl)cn3)n2CC2CCOCC2)n1` [Example 302.0, (1R,2S)-1-(5-chloropyrimidin-2-yl)-1-methoxy-N-(5-(6-methoxypyridin-2-yl)-4-((tetrahydro-2H-pyran-4-yl)methyl)-4H-1,2,4-triazol-3-yl)propane-2-sulfonamide], the half-maximal effective concentration (EC50) turned out to be 53 nM.

For `COC[C@@H](C)n1c(NS(=O)(=O)[C@@H](C)[C@H](OC)c2ncc(Cl)cn2)nnc1-c1cncc(C)c1` [Example 126.0], the EC50 worked out at 38 nM.
